These results are taken from patent US20200199190A1, “Calcitonin Mimetics for Treating Diseases and Disorders” (KeyBioscience AG, priority 2017, published 2020).

Entries after “also recorded” stand apart in the source; their conditions may differ. Ends that are not written are not given here.

The target in one test is T1, Amylin Receptor (AMY-R) (Homo sapiens, UniProt P30988).
T1 construct: host or cells: CHO-K1
T1 sequence (P30988 25-474): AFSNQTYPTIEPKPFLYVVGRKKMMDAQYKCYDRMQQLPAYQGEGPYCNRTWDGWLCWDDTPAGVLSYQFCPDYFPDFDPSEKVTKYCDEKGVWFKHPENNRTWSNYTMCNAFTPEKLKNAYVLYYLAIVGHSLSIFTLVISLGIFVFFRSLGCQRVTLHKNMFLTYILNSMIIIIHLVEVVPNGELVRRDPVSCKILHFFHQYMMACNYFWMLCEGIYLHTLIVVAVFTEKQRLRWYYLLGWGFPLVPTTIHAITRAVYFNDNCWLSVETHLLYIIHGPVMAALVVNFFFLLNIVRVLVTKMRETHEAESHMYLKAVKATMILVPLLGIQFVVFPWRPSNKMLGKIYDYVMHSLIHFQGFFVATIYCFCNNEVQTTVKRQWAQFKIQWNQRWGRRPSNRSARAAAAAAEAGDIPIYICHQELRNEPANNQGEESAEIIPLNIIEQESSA
T1 sequence (O60896 24-148 partner): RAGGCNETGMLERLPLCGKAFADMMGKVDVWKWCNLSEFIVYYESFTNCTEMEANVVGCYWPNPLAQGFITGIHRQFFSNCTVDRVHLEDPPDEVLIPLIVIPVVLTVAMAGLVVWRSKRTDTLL
Briefly: PathHunter β-arrestin recruitment dose response, amylin receptor activation (CHO-K1 CALCR RAMP3 cells). The following applies: FIGS. 2A-2B. Type of test: cell-based. As to the method: FIGS. 2A-2B: β-arrestin recruitment dose response by KBP-046-KBP-054 (FIG. 2A) and KBP-058-KBP-063 (FIG. 2B) as a function of amylin receptor activation. Dose range is 1 μM to 15 μM and data is shown as fold of vehicle. Screening was conducted in CHO-K1 CALCR RAMP3 Pathhunter cells from DiscoveRx.
(§1) In the following examples, the following materials and methods were employed. The following cell lines expressing the calcitonin, amylin and CGRP receptors were purchased and cultured according to the manufacturer's instructions. • 1. Calcitonin Receptor (CTR): U2OS-CALCR from DiscoveRx (Cat. No.: 93-0566C3). • 2. Amylin Receptor (AMY-R): CHO-K1 CALCR+RAMP3 from DiscoveRx (Cat. No.: 93-0268C2). In independent bioassays, CTR and AMY-R cells were treated with for the indicated timepoints with increasing doses of KBPs identified in Tables 1A and 1B (1000, 250, 62.5, 15.6, 3.9, 1.0, 0.24, 0.06, 0.02 nM and vehicle).
(§2) PathHunter β-Arrestin GPCR assays are whole cell, functional assays that directly measure the ability of a ligand to activate a GPCR by detecting the interaction of β-Arrestin with the activated GPCR. Because β-arrestin recruitment is independent of G-protein signaling, these assays offer a powerful and universal screening and profiling platform that can be used for virtually any Gi-, Gs, or Gq-coupled receptor.
(§3) In this system, the GPCR is fused in frame with the small enzyme fragment ProLink™ and co-expressed in cells stably expressing a fusion protein of β-Arrestin and the larger, N-terminal deletion mutant of β-gal (called enzyme acceptor or EA). Activation of the GPCR stimulates binding of β-Arrestin to the ProLink-tagged GPCR and forces complementation of the two enzyme fragments, resulting in the formation of an active β-gal enzyme. This interaction leads to an increase in enzyme activity that can be measured using chemiluminescent PathHunter® Detection Reagents.
(§4) The assay was performed in white 384 well plates (Greiner Bio-One, 784080). Cells were seeded 2500 cells per well in 10 μL cell-type specific medium the day prior to the experiment. To quantify the GPCR-mediated β-arrestin recruitment the Pathhunter™ Detection Kit (93-0001, DiscoverX) was used and assay performed accordingly to the manufacturer's instructions. Furthermore, data from the Pathhunter™ β-arrestin recruitment assay was normalized to an internal standard to improve the distinction between top KBP performers and non-performers.

The target in test [1] is T2, Calcitonin Receptor (CTR) (Homo sapiens, UniProt P30988).
T2 construct: host or cells: U2OS
T2 sequence (P30988 25-474): T1 sequence (P30988 25-474)
Briefly: Prolonged β-arrestin recruitment, calcitonin receptor activation over time (U2OS CALCR cells). Type of test: cell-based. The following applies: single dose of 100 nM at t=0, read up to 72 hours, FIGS. 3A-3B. On the procedure:
FIGS. 3A-3B: Prolonged β-arrestin recruitment by KBP-046-KBP-054 (FIG. 3A) and KBP-058-KBP-063 (FIG. 3B) and human calcitonin as a function of calcitonin receptor activation. Single dose of 100 nM at t=0 and after 3, 6, 24, and 72 hours after initial treatment, β-arrestin recruitment was assessed to investigate each ligands protracted potential. Data is shown as fold of vehicle. Screening was conducted in U2OS CALCR Pathhunter cells from DiscoveRx.
as §1, §2, §3, §4
Results are seen in FIGS. 1A-1B, 2A-2B and 3A-3B. […] This was done using the calcitonin receptor (CTR): U2OS-CALCR from DiscoveRx (Cat. No.: 93-0566C3) cell line, and as opposed to the classical three hour output, β-arrestin accumulation was conducted over 24, 48 and 72 hour and then analyzed.

Another test has as its system Sprague Dawley Rats. Kind of test: Food intake in healthy Sprague Dawley rats after single s.c. dose. Type of test: in vivo, rat. Conditions: single s.c. dose 2.5 μg/kg; for Food Intake ΔFOOD Sustained Attenuation Hours: SD rats fasted overnight, food intake monitored 0-4 h and 4-24 h; for reduction in food intake within the 4 hour interval / time to which the reduction in food intake was maintained (sustained effect) / size of reduction in food intake compared with the other tested peptides: SD rats; for reduction in food intake within the 4 hour interval: 0-4 hours; for time to which the reduction in food intake was maintained (sustained effect): intervals 0-4 and 4-24 hours; for size of reduction in food intake compared with the other tested peptides: FIG. 4A (KBP-046 to -054) and FIG. 4B (KBP-058 to -063). On the procedure: FIGS. 4A-43: Protracted attenuation of food intake in SD rats by KBP-046-KBP-054 (FIG. 4A) and KBP-058-KBP-063 (FIG. 4B). After single s.c dose of 2.5 μg/kg of KBP, food intake was monitored in intervals of 0-4 h and 4-24 h to assess the protracted action of individual KBPs. Individual rats were single caged, n=4 in each group.
Rats were single caged four days prior to individual tests. They were randomized by weight into seven groups (Vehicle (0.9% NaCl), KBPs (doses: 2.5 μg/kg). They were fasted overnight and then treated with a single dose of peptide or vehicle in the morning using subcutaneous administration. The food intake was monitored in the following intervals (0-4 hours and 4-24 hours).

In the case of “CGNLSTCMLGRLSQDLNKFHTFPKTDVGANAP (not fully specified; ends and bridges not checked) [KBP-047, Calcitonin mimetic peptide]”, in the test with Amylin Receptor (AMY-R), the “amylin receptor activation (β-arrestin recruitment, fold of vehicle)” value was “potent amylin agonists”. Further, the “protracted calcitonin receptor activation (prolonged β-arrestin recruitment, fold of vehicle)” value in test [1] is listed as “superior”. In addition, in the test with Sprague Dawley Rats, the “Food Intake ΔFOOD Sustained Attenuation Hours” value was determined as 24 h, the “reduction in food intake within the 4 hour interval” value is reported as “reduction in food intake”, the “time to which the reduction in food intake was maintained (sustained effect)” value (“time to which the reduction” for short) is 24 h and the “size of reduction in food intake compared with the other tested peptides” value (from here on “size of reduction in food intake”) was “largest reduction; also recorded: far greater reduction in food intake”.

Regarding “CGNLSTCMLGRLSQDLNKFHTFPQTDVGANAP (not fully specified; ends and bridges not checked) [KBP-063, Calcitonin mimetic peptide]”, in the test with Amylin Receptor (AMY-R), the “amylin receptor activation (β-arrestin recruitment, fold of vehicle)” value was “potent amylin agonists”. In test [1], the “protracted calcitonin receptor activation (prolonged β-arrestin recruitment, fold of vehicle)” value was “superior”. In the test on Sprague Dawley Rats, the “Food Intake ΔFOOD Sustained Attenuation Hours” value is listed as 24 h, the “reduction in food intake within the 4 hour interval” value is recorded as “reduction in food intake”, the “time to which the reduction” value stood at 24 h and the “size of reduction in food intake” value is listed as “far greater reduction in food intake”.

For “CGNLSTCMLGRLTQDFHKLHTFPKTDVGANAP (not fully specified; ends and bridges not checked) [KBP-058, Calcitonin mimetic peptide]”, the “amylin receptor activation (β-arrestin recruitment, fold of vehicle)” value with Amylin Receptor (AMY-R) is given as “potent amylin agonists”. For the same substance, the “protracted calcitonin receptor activation (prolonged β-arrestin recruitment, fold of vehicle)” value in test [1] is “superior”. In the test on Sprague Dawley Rats, the “Food Intake ΔFOOD Sustained Attenuation Hours” value turned out to be 24 h, the “reduction in food intake within the 4 hour interval” value is “reduction in food intake”, the “time to which the reduction” value is 24 h and the “size of reduction in food intake” value is “far greater reduction in food intake”.

For “CGNLSTCMLGRLTQDLHKLQTFPKTDVGANAP (not fully specified; ends and bridges not checked) [KBP-053, Calcitonin mimetic peptide]”, the “amylin receptor activation (β-arrestin recruitment, fold of vehicle)” value with Amylin Receptor (AMY-R) is listed as “potent amylin agonists”. Further, the “protracted calcitonin receptor activation (prolonged β-arrestin recruitment, fold of vehicle)” value in test [1] is reported as “superior”. In the test with Sprague Dawley Rats, the “Food Intake ΔFOOD Sustained Attenuation Hours” value amounted to 24 h, the “reduction in food intake within the 4 hour interval” value is “reduction in food intake”, the “time to which the reduction” value came out at 24 h and the “size of reduction in food intake” value is “far greater reduction in food intake”.

Take “CGNLSTCMLGRLTQDLNKFHTFPKTDVGANAP (not fully specified; ends and bridges not checked) [KBP-062, Calcitonin mimetic peptide]”: the “amylin receptor activation (β-arrestin recruitment, fold of vehicle)” value with Amylin Receptor (AMY-R) is “potent amylin agonists”. Also, the “protracted calcitonin receptor activation (prolonged β-arrestin recruitment, fold of vehicle)” value in test [1] is “superior”. Also, in the test with Sprague Dawley Rats, the “Food Intake ΔFOOD Sustained Attenuation Hours” value is 24 h, the “reduction in food intake within the 4 hour interval” value is “reduction in food intake”, the “time to which the reduction” value came to 24 h and the “size of reduction in food intake” value is “largest reduction; also recorded: top performance in the screening; also recorded: far greater reduction in food intake”.

For “KBP-046: Calcitonin mimetic peptide, Table 1 residues CGNLSTCMLGTYTQDFHRLQTYPKTDVGANAP (not fully specified; ends and bridges not checked)”, in the test with Sprague Dawley Rats, the “Food Intake ΔFOOD Sustained Attenuation Hours” value is 4 h.

Turning to “KBP-048: Calcitonin mimetic peptide, Table 1 residues CGNLSTCMLGTYTQDFNKFNTFPKTDVGANAP”, the “Food Intake ΔFOOD Sustained Attenuation Hours” value in the test with Sprague Dawley Rats is reported as 4 h.

Regarding “KBP-050: Calcitonin mimetic peptide, Table 1 residues CGNLSTCMLGRLSQDLHRLQTYPKTAIGVGAP (not fully specified; ends and bridges not checked)”, the “Food Intake ΔFOOD Sustained Attenuation Hours” value in the test with Sprague Dawley Rats was determined as 4 h.

“KBP-051: Calcitonin mimetic peptide, Table 1 residues CSNLSTCMLGRLSQDLHRLQTYPKTAIGVGAP (not fully specified; ends and bridges not checked)”: the “Food Intake ΔFOOD Sustained Attenuation Hours” value with Sprague Dawley Rats came to 4 h.

Turning to “KBP-052: Calcitonin mimetic peptide, Table 1 residues CSNLSTCMLGTYTQDFHRLQTYPKTAIGVGAP (not fully specified; ends and bridges not checked)”, the “Food Intake ΔFOOD Sustained Attenuation Hours” value with Sprague Dawley Rats stood at 4 h.

For the substance “KBP-054: Calcitonin mimetic peptide, Table 1 residues CGNLST, positions 7-8 blank, LGRYTQDFHKPQTFPKTDVGANAP”, the “Food Intake ΔFOOD Sustained Attenuation Hours” value in the test on Sprague Dawley Rats came to 4 h.

As to “KBP-059: Calcitonin mimetic peptide, Table 1 residues CGNLSTCMLGTYTQDLHKLHTFPKTDVGANAP (not fully specified; ends and bridges not checked)”, the “Food Intake ΔFOOD Sustained Attenuation Hours” value in the test on Sprague Dawley Rats came to 4 h.

For the substance “KBP-060: Calcitonin mimetic peptide, Table 1 residues CGNLSTCMLGTYTQDFHRLQTFPQTDVGANAP”, the “Food Intake ΔFOOD Sustained Attenuation Hours” value with Sprague Dawley Rats was 4 h.

As to “KBP-061: Calcitonin mimetic peptide, Table 1 residues CGNLSTCMLGTYTQDFHRLQTFPQTDVGANAP (printed identical to KBP-060) (not fully specified; ends and bridges not checked)”, the “Food Intake ΔFOOD Sustained Attenuation Hours” value in the test on Sprague Dawley Rats is 4 h.
